# Patent US4732909A, “3-(3-halophenyl-3,4-diazatetracyclo-[6.3.1.1^6,10.0^1,5 ]tridec-4-en-2-one compounds and use thereof to treat hypoxia” (Pennwalt Corporation, priority 1987, dated 1988)
# Experiments:
# [1] = in vivo; conditions: ip
# [2] = Estimated LD50; assay type: in vivo; conditions: ip
# [3] = test system: mice; test: antihypoxia test: survival duration of mice in normobaric atmosphere of 96% nitrogen and 4% oxygen; assay type: in vivo
# Text: The antihypoxia test measures the survival duration of mice in a normobaric atmosphere consisting of 96% nitrogen and 4% oxygen, at ambient temperature. The mice are considered dead when they stop visible aspiration. The test indicates potential clinical utility in situations of central nervous system hypoxia, such as occurs following stroke, cardiac arrest, and traumatic accidents.
compound,measurement,setting,value
"O=C1N(c2cccc(Cl)c2)N=C2C3CC4CC(C3)CC12C4 [3-(3-Chlorophenyl)-3,4-diazatetracyclo[6.3.1.1^6,10.0^1,5]tridec-4-en-2-one]",TD50,[1],25 mg/kg
same,Estimated LD50,[2],> 100 mg/kg
same,"Antihypoxia, Survial Minutes, Compound","[3]; 2.5 mg/kg ip, N=10, ambient temp., control 8.7, P NS (P > 0.05)",8.0 min
same,"Antihypoxia, Survial Minutes, Compound","[3]; 5 mg/kg ip, N=10, ambient temp., control 8.7, P <0.05",10.5 min
same,"Antihypoxia, Survial Minutes, Compound","[3]; 10 mg/kg ip, N=10, ambient temp., control 6.9, P <0.05",9.5 min
same,"Antihypoxia, Survial Minutes, Compound","[3]; 25 mg/kg ip, N=5, ambient temp., control 8.7, P 0.075",13.0 min
same,"Antihypoxia, Survial Minutes, Compound","[3]; 25 mg/kg ip, N=10, ambient temp., control 6.9, P <0.05",12.6 min
same,prolongation of survival of mice (in words),"[3]; 25 mg/kg, intraperitoneally",prolonged the survival of mice by a very significant margin
